The assay has as its target T1, MATK (HYL) (Homo sapiens, UniProt P42679).
T1 construct: purchased Thermo Fisher Scientific (Life Technologies) SelectScreen
The assay is described as follows: SelectScreen Z'LYTE. Type of assay: biochemical. The procedure, abridged: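 NU5455 was profiled across the SelectScreen Broad panel of kinase activity and binding assays. Z'LYTE reactions such as CSF1R ran at apparent Km ATP, while the Adapta CAMK1 assay used ATP listed as 10. Values are given as percent.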

For orientation: inhibition means the relative decrease from the control value, in per cent.

T1 sequence (P42679 whole entry): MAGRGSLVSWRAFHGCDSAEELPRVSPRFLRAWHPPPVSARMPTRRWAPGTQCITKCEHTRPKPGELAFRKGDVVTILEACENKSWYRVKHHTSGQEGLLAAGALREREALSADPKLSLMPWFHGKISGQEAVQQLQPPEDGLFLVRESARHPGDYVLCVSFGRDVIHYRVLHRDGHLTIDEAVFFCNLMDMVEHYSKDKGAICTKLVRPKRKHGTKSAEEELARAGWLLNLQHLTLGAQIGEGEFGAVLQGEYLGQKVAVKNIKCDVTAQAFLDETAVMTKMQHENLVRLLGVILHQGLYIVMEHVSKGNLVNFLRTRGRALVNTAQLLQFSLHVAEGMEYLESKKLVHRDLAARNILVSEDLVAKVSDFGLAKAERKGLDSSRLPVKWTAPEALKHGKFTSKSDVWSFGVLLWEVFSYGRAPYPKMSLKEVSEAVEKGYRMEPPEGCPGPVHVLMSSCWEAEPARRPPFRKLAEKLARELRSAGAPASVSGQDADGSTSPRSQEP

With `CN(C(=O)CN1CCOCC1)c1ccc2sc3c(-c4cccc5c(=O)cc(N6CC7CCC(C6)O7)oc45)cccc3c2c1` [NU5455], the inhibition at 1 µM is -6.3%.

The values above are taken from article PMC6934184, “Selective DNA-PKcs inhibition extends the therapeutic index of localized radiotherapy and chemotherapy” (The Journal of Clinical Investigation, 2019).
